Test system: B16 Melanoma
Conditions: in vivo

SMILES	T-C [days]
O=P1(N(CCCl)CCCl)NCCCO1 (centres unmarked) [Cyclophosphamide, cyclophosphamide]	27
O=P1(NCCCl)OCCCN1CCCl (centres unmarked) [Ifosfamide]	18

Source: patent publication US7678778B2 (priority 2004, dated 2010)
